Source: paper PMC7928206 (Toxicology in vitro : an international journal published in …, 2021)

Assays:
[1] = target: T1, rat brain acetylcholinesterase (AChE) (Rattus norvegicus, UniProt P37136); assay type: biochemical; settings: in brain and peripheral tissues
T1 sequence (P37136 32-614): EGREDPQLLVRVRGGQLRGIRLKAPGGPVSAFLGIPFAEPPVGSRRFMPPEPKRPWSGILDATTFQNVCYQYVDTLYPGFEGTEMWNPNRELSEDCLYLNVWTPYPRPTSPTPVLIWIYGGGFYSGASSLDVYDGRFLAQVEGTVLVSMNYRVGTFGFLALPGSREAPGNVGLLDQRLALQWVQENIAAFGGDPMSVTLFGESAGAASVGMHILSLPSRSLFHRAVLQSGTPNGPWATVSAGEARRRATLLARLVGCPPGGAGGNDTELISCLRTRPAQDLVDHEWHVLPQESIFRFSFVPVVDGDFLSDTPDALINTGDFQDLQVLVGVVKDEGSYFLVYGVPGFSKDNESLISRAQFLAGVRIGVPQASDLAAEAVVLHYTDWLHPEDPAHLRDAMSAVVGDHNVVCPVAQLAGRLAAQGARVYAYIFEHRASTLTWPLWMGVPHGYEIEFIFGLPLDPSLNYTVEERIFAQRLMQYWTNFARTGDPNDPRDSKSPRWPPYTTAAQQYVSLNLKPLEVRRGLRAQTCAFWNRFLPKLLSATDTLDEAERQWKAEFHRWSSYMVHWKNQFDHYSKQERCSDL

[2] = Observed stability of the compound; settings: also propensity to adhere to glass
[3] = target: rat serum butyrylcholinesterase (BChE) (Rattus norvegicus, UniProt Q9JKC1); assay type: biochemical
Chain of rat serum butyrylcholinesterase (BChE) (Q9JKC1 24-597): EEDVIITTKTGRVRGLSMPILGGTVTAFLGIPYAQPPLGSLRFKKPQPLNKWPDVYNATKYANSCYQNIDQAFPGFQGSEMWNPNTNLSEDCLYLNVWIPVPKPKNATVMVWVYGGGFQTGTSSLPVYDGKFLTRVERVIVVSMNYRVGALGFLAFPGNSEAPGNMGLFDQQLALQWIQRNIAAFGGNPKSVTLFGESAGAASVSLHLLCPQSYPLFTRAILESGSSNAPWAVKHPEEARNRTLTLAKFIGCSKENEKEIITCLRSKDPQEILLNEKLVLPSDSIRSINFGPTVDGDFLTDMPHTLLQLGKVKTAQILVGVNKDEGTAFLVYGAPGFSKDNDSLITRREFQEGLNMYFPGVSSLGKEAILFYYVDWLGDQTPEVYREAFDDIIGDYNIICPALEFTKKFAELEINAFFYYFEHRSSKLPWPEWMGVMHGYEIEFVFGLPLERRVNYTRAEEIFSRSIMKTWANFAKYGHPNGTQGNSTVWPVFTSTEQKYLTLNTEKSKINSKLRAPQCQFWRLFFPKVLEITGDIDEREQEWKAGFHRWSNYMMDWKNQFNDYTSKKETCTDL

## CCOP(=O)(OCC)Oc1nc(Cl)c(Cl)cc1Cl [Chlorpyrifos-oxon]
[1]
  fold more potent AChE inhibitor than ethyl-ronnel-oxon: about 70 fold

## CCOP(=O)(OCC)Oc1cc(C)nc(C(C)C)n1 [Diazoxon]
[2]
  stability, result in words: particularly unstable

## COP(=O)(OC)SCn1nnc2ccccc2c1=O [Azinphos-methyl-oxon]
[3]
  Serum BChE inhibition, result in words: not good inhibitors of serum BChE
